The record followed here is patent US20040156742A1, “Synergistically-effective cyclohexylethan-1-yl ester mixtures as malodour counteractants as measured physiologically and psychometrically and methods for using same” (priority 2003, published 2004).

This assay is described as follows: Adaptation curves: % odour pulses correctly identified versus inter-stimulus interval (FIGS. 9C, 9D). The class given is in vivo, human. As to conditions: pulse length 200 microseconds. From the text: as it applies to individual malodour molecules and individual fragrance molecules is set forth in Jacob et al., “Psychometric Evaluation of Responses to Pleasant and Malodour Stimulation in Human Subjects; Adaptation, Dose Response and Gender Differences”, Int. J. Psychophysiology, (2003). An additional discussion of the model as it applies to olfaction is set forth in Wang et al., “The correlation between physiological and psychological responses to odor stimulation in human subjects” Clinical Neurophysiology 113 (2002) 542-551 at page 546.
wherein Z is the percentage of odour pulses correctly identified;
Y is the pulse duration, or “pulse length” measured in units of microseconds; and
X is the inter-stimulus interval, “ISI”, measured in units of seconds.
FIG. 9C is a set of adaptation curves for the malodour, n-butyric acid, with the vertical axis being the “Z” axis, indicated by reference numeral 90C and the horizontal axis being the “X” axis indicated by reference numeral 92C. The graph indicated by reference numeral 97C and data points therefor 970C is for a pulse length of 35 microseconds. The graph indicated by reference numeral 96C and data points therefor 960C is for a pulse length of 50 microseconds. The graph indicated by reference numeral 95C and data points therefor 950C is for a pulse length of 75 microseconds. […]

As for `CCCCCOC(C)=O` [amyl acetate], for the setting “point 990D on curve 93D: inter-stimulus interval X1=15 seconds, FIG. 9D”, the “percentage of odour pulses correctly identified, Z” value was found to be 54%.

As to `CCCC(=O)O` [n-butyric acid], where the note is “point 990C on curve 93C: inter-stimulus interval X1=12 seconds, FIG. 9C”, the “percentage of odour pulses correctly identified, Z” value turned out to be 75%.
